Measured values from patent US6335350B1, “Acetamide and substituted acetamide-containing thiourea inhibitors of herpes viruses” (American Home Products Corporation, priority 1998, dated 2002).
In brackets after ≈: the same amount, converted by molar mass.

Legend:
[1] = test system: HSV-1; experiment: HSV Antiviral (ELISA) Assay; type: cell-based, herpes simplex virus type 1; details: Vero cells, HSV-1; for IC50: Human alphaherpesvirus 1, Vero, read-out: IC50 Ug/ml HSV
Method in brief: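 Vero cells in DMEM/2% FBS pretreated with compound 30 min before HSV-1 infection (MOI 0.006), then ~24 h at 37 °C. Viral gD detected by ELISA with β-galactosidase secondary and 4-methylumbelliferyl-galactoside (ex 365/em 450 nm); IC50 from fluorescence versus untreated infected cells.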

[2] = test system: HCMV wild-type; experiment: HCMV yield assay; type: cell-based, human cytomegalovirus; details: human foreskin fibroblasts; for IC50: Human betaherpesvirus 5, Fibroblast, read-out: IC50 Ug/ml HCMV
Method in brief: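 HCMV wild-type infected human foreskin fibroblast monolayers at MOI typically 0.2 with varying compound concentrations; virus yield harvested at 3 days post-infection and titered on fibroblasts without inhibitor, plaques counted at 2 weeks. IC50 or IC90 = compound amount reducing yield titer by 50% or 90%.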

[3] = test system: VZV strain Ellen; experiment: VZV Antiviral (ELISA) Assay; type: cell-based, varicella-zoster virus; details: human foreskin fibroblast cells; for IC50 / inhibition at 10 µg/mL: Human alphaherpesvirus 3, Fibroblast; for IC50: read-out: IC50 Ug/ml VZV; for inhibition at 10 µg/mL: read-out: % inhibition 10 ug/ml VZV, 10 ug/ml
Method in brief: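 HFF cells infected overnight with VZV Ellen at MOI <0.1, mixed with uninfected cells, were seeded with compound and grown 3 days at 37° C in DMEM/2% FBS. Viral glycoprotein II was detected by ELISA with β-galactosidase-linked secondary; IC50 from fluorescence versus no-compound wells.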

Compound | IC50 [1] | IC50 [2] | IC50 [3] | inhibition at 10 µg/mL [3] | IC50 Ug/ml HSV [1] | IC50 Ug/ml HCMV [2] | % inhibition 10 ug/ml VZV [3] | IC50 Ug/ml VZV [3]
CC(=O)Nc1ccc(NC(=S)Nc2ccc(O)cc2O)cc1 [Example 130, N-{4-[3-(2,4-Dihydroxy-phenyl)-thioureido]-phenyl}-acetamide] | > 50 µg/mL | 30 µg/mL (≈ 94.5 µM) | > 10 µg/mL | 30% |  |  |  | 
COc1cc(O)c(NC(=S)Nc2ccc(NC(C)=O)cc2)cc1Cl [Example 839, N-{4-[3-(5-Chloro-2-hydroxy-4-methoxy-phenyl)-thioureido]-phenyl}-acetamide] | 10 µg/mL (≈ 27.3 µM) | 15 µg/mL (≈ 41 µM) | > 10 µg/mL | 17% |  |  |  | 
C=CCN(c1ccc(NC(=S)Nc2ccc(NC(C)=O)cc2)cc1Cl)C1CCCCC1 [Example 273, N-(4-{3-[4-(Allyl-cyclohexyl-amino)-3-chloro-phenyl]-thioureido}-phenyl)-cetamide] |  |  |  |  | >50 Ug/ml | >10 Ug/ml | 46% | >10 Ug/ml
COc1cc(OC)c(NC(=S)Nc2ccc(NC(C)=O)c(C)c2)cc1Cl [Example 309, N-{4-[3-(5-Chloro-2,4-dimethoxy-phenyl)-thioureido]-2-methyl-phenyl}-acetamide] | 8 µg/mL (≈ 20.3 µM) | 25 µg/mL (≈ 63.5 µM) | > 10 µg/mL | 22% |  |  |  | 
CC(=O)Nc1ccc(NC(=S)Nc2cc(C(F)(F)F)ccc2Cl)cc1 [Example 111, N-{4-[3-(2-Chloro-5-trifluoromethyl-phenyl)-thioureido]-phenyl}-acetamide] | 15 µg/mL (≈ 38.7 µM) | 12 µg/mL (≈ 30.9 µM) | > 10 µg/mL | 51% |  |  |  | 
CCN(c1ccc(NC(=S)Nc2ccc(NC(C)=O)cc2)cc1Cl)C1CCCCC1 [Example 267, N-(4-{3-[3-Chloro-4-(cyclohexyl-ethyl-amino)-phenyl]-thioureido}-phenyl)-acetamide] | > 10 µg/mL | > 10 µg/mL | > 10 µg/mL | 25% |  |  |  | 
COc1cc(O)c(Cl)cc1NC(=S)Nc1ccc(NC(C)=O)cc1 [Example 223, N-{4-[3-(5-Chloro-4-hydroxy-2-methoxy-phenyl)-thioureido]-phenyl}-acetamide] | 14 µg/mL (≈ 38.3 µM) | > 50 µg/mL | > 10 µg/mL | 24% |  |  |  | 
COc1cc(OCC(N)=O)c(Cl)cc1NC(=S)Nc1ccc(NC(C)=O)cc1 [Example 838, 2-{4-[3-(4-Acetylamino-phenyl)-thioureido]-2-chloro-5-methoxy-phenoxy}-acetamide] | > 50 µg/mL | > 10 µg/mL | > 10 µg/mL | 20% |  |  |  | 
COc1cc(NC(=S)Nc2ccc(NC(C)=O)cc2)cc(OC)c1OC [Example 151, N-{4-[3-(3,4,5-Trimethoxy-phenyl)-thioureido]-phenyl}-acetamide] | > 50 µg/mL | 40 µg/mL (≈ 107 µM) | > 10 µg/mL | 0% |  |  |  | 
COc1c(Br)cc(NC(=S)Nc2ccc(NC(C)=O)cc2)c(OC)c1Br [Example 894, N-{4-[3-(3,5-Dibromo-2,4-dimethoxy-phenyl)-thioureido]-phenyl}-acetamide] | 12 µg/mL (≈ 23.8 µM) | 7 µg/mL (≈ 13.9 µM) | > 10 µg/mL | 56% |  |  |  | 
CC(=O)Nc1ccc(NC(=S)Nc2cc(Cl)c(O)c(Cl)c2C)cc1 [Example 129, N-{4-[3-(3,5-Dichloro-4-hydroxy-2-methyl-phenyl)-thioureido]-phenyl}-acetamide] | > 50 µg/mL | > 50 µg/mL | > 10 µg/mL | 29% |  |  |  | 
CC(=O)Nc1ccc(NC(=S)Nc2cc(Cl)c(O)c(Cl)c2)cc1 [Example 108, N-{4-[3-(3,5-Dichloro-4-hydroxy-phenyl)-thioureido]-phenyl}-acetamide] | 50 µg/mL (≈ 135 µM) | > 50 µg/mL | > 10 µg/mL | 28% |  |  |  | 
CC(=O)Nc1ccc(NC(=S)Nc2cccc([N+](=O)[O-])c2)cc1 [Example 124, N-{4-[3-(3-Nitro-phenyl)-thioureido]-phenyl}-acetamide] | 50 µg/mL (≈ 151 µM) | 50 µg/mL (≈ 151 µM) | > 10 µg/mL | 0% |  |  |  | 
CC(=O)Nc1ccc(NC(=S)Nc2cc(Cl)ccc2C)cc1 [Example 890, N-{4-[3-(5-Chloro-2-methyl-phenyl)-thioureido]-phenyl}-acetamide] | 20 µg/mL (≈ 59.9 µM) | 35 µg/mL (≈ 105 µM) | > 10 µg/mL | 20% |  |  |  | 
COc1cc(OC)c(NC(=S)Nc2ccc(NC(C)=O)c3ccccc23)cc1Cl [Example 329, N-{4-[3-(5-Chloro-2,4-dimethoxy-phenyl)-thioureido]-naphthalen-1-yl}-acetamide] | 4 µg/mL (≈ 9.3 µM) | > 10 µg/mL | > 10 µg/mL | 38% |  |  |  | 
CC(=O)Nc1ccc(NC(=S)Nc2ccc(C)c(Cl)c2)cc1 [Example 889, N-{4-[3-(3-Chloro-4-methyl-phenyl)-thioureido]-phenyl}-acetamide] | 2 µg/mL (≈ 5.99 µM) | 1.2 µg/mL (≈ 3.59 µM) | > 10 µg/mL | 1% |  |  |  | 
COc1cc(OCC#N)c(NC(=S)Nc2ccc(NC(C)=O)cc2)cc1Cl [Example 213, N-(4-{3-[5-Chloro-4-methoxy-2-(2-nitrilo-ethoxy)-phenyl]-thioureido}-phenyl)-acetamide] | 30 µg/mL (≈ 74.1 µM) | 15 µg/mL (≈ 37 µM) | > 10 µg/mL | 20% |  |  |  | 
CCOc1cc(OC)c(Cl)cc1NC(=S)Nc1ccc(NC(C)=O)cc1 [Example 831, N-{4-[3-(5-Chloro-2-ethoxy-4-methoxy-phenyl)-thioureido]-phenyl}-acetamide] | 3 µg/mL (≈ 7.62 µM) | > 10 µg/mL | > 10 µg/mL | 11% |  |  |  | 
COc1cc(N2CCCC2)c(NC(=S)Nc2ccc(NC(C)=O)cc2)cc1Cl [Example 228, N-{4-[3-(5-Chloro-4-methoxy-2-pyrrolidin-1-yl-phenyl)-thioureido]-phenyl}-acetamide] | 3 µg/mL (≈ 7.16 µM) | > 10 µg/mL | > 10 µg/mL | 35% |  |  |  | 
COc1c(C)cc(NC(=S)Nc2ccc(NC(C)=O)cc2)cc1Cl [Example 877, N-{4-[3-(3-Chloro-4-methoxy-5-methyl-phenyl)-thioureido]-phenyl}-acetamide] | 30 µg/mL (≈ 82.4 µM) | 2 µg/mL (≈ 5.5 µM) | > 10 µg/mL | 15% |  |  |  | 
COc1cc(NC(=S)Nc2ccc(NC(C)=O)cc2)c(OC)cc1Cl [Example 110, N-{4-[3-(4-Chloro-2,5-dimethoxy-phenyl)-thioureido]-phenyl}-acetamide] | 12 µg/mL (≈ 31.6 µM) | 30 µg/mL (≈ 79 µM) | > 10 µg/mL | 25% |  |  |  | 
CC(=O)Nc1ccc(NC(=S)Nc2ccc(N(C)CCN(C)C)c(Cl)c2)cc1 [Example 300] |  |  |  |  | >50 Ug/ml | 1.5 Ug/ml | 23% | >10 Ug/ml
N-{4-[3-(5-Chloro-2,4-dimethoxy-phenyl)-thioureido]-3-methoxy-phenyl}-acetamide [Example 388] |  |  |  |  | 0.6 Ug/ml | >10 Ug/ml | 52% | >10 Ug/ml
CC(=O)Nc1ccc(NC(=S)Nc2ccc(N(C)C3CCCC3)c(Cl)c2)cc1 [Example 844, N-(4-{3-[3-Chloro-4-(cyclopentyl-methyl-amino)-phenyl]-thioureido}-phenyl)-acetamide] | 15 µg/mL (≈ 36 µM) | 0.8 µg/mL (≈ 1.92 µM) | > 10 µg/mL | 32% |  |  |  | 
CCOc1c(Cl)cc(NC(=S)Nc2ccc(NC(C)=O)cc2)cc1Cl [Example 176, N-{4-[3-(3,5-Dichloro-4-ethoxy-phenyl)-thioureido]-phenyl}-acetamide] | > 50 µg/mL | 0.5 µg/mL (≈ 1.26 µM) | > 10 µg/mL | 24% |  |  |  | 
CC(=O)Nc1ccc(NC(=S)Nc2ccc(Br)c(Cl)c2)cc1 [Example 904, N-{4-[3-(4-Bromo-3-chloro-phenyl)-thioureido]-phenyl}-acetamide] | 4 µg/mL (≈ 10 µM) | 1 µg/mL (≈ 2.51 µM) | > 10 µg/mL | 26% |  |  |  | 
COc1ccc(NC(=S)Nc2ccc(NC(C)=O)cc2)c(OC)n1 [Example 896, N-{4-[3-(2,6-Dimethoxy-pyridin-3-yl)-thioureido]-phenyl}-acetamide] | 12 µg/mL (≈ 34.6 µM) | > 50 µg/mL | > 10 µg/mL | 17% |  |  |  | 
CCCCCCN(C)c1ccc(NC(=S)Nc2ccc(NC(C)=O)cc2)cc1Cl [Example 906, N-(4-{3-[3-Chloro-4-(hexyl-methyl-amino)-phenyl]-thioureido}-phenyl)-acetamide] | > 10 µg/mL | 1.5 µg/mL (≈ 3.46 µM) | > 10 µg/mL | 32% |  |  |  | 
COCCN(C)c1ccc(NC(=S)Nc2ccc(NC(C)=O)cc2)cc1Cl [Example 317, N-[4-(3-{3-Chloro-4-[(2-methoxy-ethyl)-methyl-amino]-phenyl}-thioureido)-phenyl]-acetamide] | 35 µg/mL (≈ 86 µM) | 2 µg/mL (≈ 4.91 µM) | > 10 µg/mL | 30% |  |  |  | 
COc1ccccc1NC(=S)Nc1ccc(NC(C)=O)cc1 [Example 105, N-{4-[3-(2-Methoxy-phenyl)-thioureido]-phenyl}-acetamide] | > 50 µg/mL | > 50 µg/mL | > 10 µg/mL | 32% |  |  |  | 
